Assay results as given in patent publication US20090041617A1, “PURIFIED HYDROGEN PEROXIDE GAS MICROBIAL CONTROL METHODS AND DEVICES” (priority 2007, published 2009).
Where two headings read alike, the source gives them in different places.

How the values were obtained:
[1] = test system: A. niger (ATCC 16404); details: for Average CFU/Test carrier (Survivors in the test) / Percent Reduction Compared to Corresponding Natural Die-off / Percent Reduction as Compared to Time Zero Control: PHPG 0.005-0.01 ppm, 35%-40% relative humidity
Source text: (§1) The device was subjected to tests designed and implemented by two accredited laboratories to: (a) measure the output of Purified Hydrogen Peroxide Gas (PHPG); (b) confirm that the output was substantially free of ozone; (c) confirm that the output was substantially free of VOC's; (d) measure the efficacy of PHPG against the Feline Calicivirus (an EPA-approved substitute for noroviruses), Methicillin Resistant Staphylococcus Aureous (MRSA), Vancomyacin Resistant Enterococcus Faecalis (VRE), Clostridium Difficile (C-Diff), Geobacillus Stearothermophilus, (a stable bacteria used by the insurance industry to verify successful microbial remediation), and Aspergillus Niger (a common fungus); and (e) test at a variety of ambient relative humidities including 35% to 40% at 70 to 72 degrees Fahrenheit, 56% to 59% at 81 to 85 degrees Fahrenheit, and 98% at 78 degrees Fahrenheit.
(§2) In quantitative microbial testing at ATS labs in Eagan, Minn. the following data was collected.

[2] = test system: C. difficile (ATCC 700792); details: for Average CFU/Test carrier (Survivors in the test) / Percent Reduction Compared to Corresponding Natural Die-off / Percent Reduction as Compared to Time Zero Control: PHPG 0.005-0.01 ppm, 35%-40% relative humidity
Source text: as §1, §2

[3] = test system: Feline Calicivirus (Norovirus substitute); details: for Average Virus Infectivity Observed After Exposure / Percent Reduction Compared to Corresponding Natural Die-off / Percent Reduction as Compared to Time Zero Virus Control: PHPG 0.005-0.01 ppm, 35%-40% relative humidity
Source text: as §1, §2

[4] = test system: MRSA (ATCC 33592); details: for Average CFU/Test carrier (Survivors in the test) / Percent Reduction Compared to Corresponding Natural Die-off / Percent Reduction as Compared to Time Zero Control: PHPG 0.005-0.01 ppm, 35%-40% relative humidity
Source text: as §1, §2

[5] = test system: VRE (ATCC 51575); details: for Average CFU/Test carrier (Survivors in the test) / Percent Reduction Compared to Corresponding Natural Die-off / Percent Reduction as Compared to Time Zero Control: PHPG 0.005-0.01 ppm, 35%-40% relative humidity
Source text: as §1, §2

[6] = test system: Geobacillus Stearothermophilus
Source text: as §1

[7] = PHPG about 0.005 ppm to about 0.10 ppm in the environment

OO [PHPG, Purified Hydrogen Peroxide Gas]
Average CFU/Test carrier (Survivors in the test) ([1]; 2 hours): 1.9 × 10^5 CFU/ CFU/Carrier | Percent Reduction Compared to Corresponding Natural Die-off ([1]; 2 hours): 13.6% | Percent Reduction as Compared to Time Zero Control ([1]; 2 hours): 19.1% | Average CFU/Test carrier (Survivors in the test) ([1]; 6 hours): 4.67 × 10^4 CFU/ CFU/Carrier | Percent Reduction Compared to Corresponding Natural Die-off ([1]; 6 hours): 81.3% | Percent Reduction as Compared to Time Zero Control ([1]; 6 hours): 80.1% | Average CFU/Test carrier (Survivors in the test) ([1]; 24 hours): 1.2 × 10^4 CFU/ CFU/Carrier | Percent Reduction Compared to Corresponding Natural Die-off ([1]; 24 hours): 90.8% | Percent Reduction as Compared to Time Zero Control ([1]; 24 hours): 94.9% | efficacy in words [1, 7]: proven effective | Average CFU/Test carrier (Survivors in the test) ([2]; 2 hours): 2.18 × 10^5 CFU/ CFU/Carrier | Percent Reduction Compared to Corresponding Natural Die-off ([2]; 2 hours): 9.2% | Percent Reduction as Compared to Time Zero Control ([2]; 2 hours): 27.3% | Average CFU/Test carrier (Survivors in the test) ([2]; 6 hours): 1.1 × 10^5 CFU/ CFU/Carrier | Percent Reduction Compared to Corresponding Natural Die-off ([2]; 6 hours): 60.6% | Percent Reduction as Compared to Time Zero Control ([2]; 6 hours): 63.3% | Average CFU/Test carrier (Survivors in the test) ([2]; 24 hours): 7.3 × 10^4 CFU/ CFU/Carrier | Percent Reduction Compared to Corresponding Natural Die-off ([2]; 24 hours): 70.4% | Percent Reduction as Compared to Time Zero Control ([2]; 24 hours): 75.7% | efficacy in words [2, 7]: proven effective | efficacy in words [3, 7]: proven effective | Average Virus Infectivity Observed After Exposure ([3]; exposure 2 hrs): 4.3 log10 | Percent Reduction Compared to Corresponding Natural Die-off ([3]; exposure 2 hrs): 96.8% | Percent Reduction as Compared to Time Zero Virus Control ([3]; exposure 2 hrs): 99.5% | Average Virus Infectivity Observed After Exposure ([3]; exposure 6 hrs): 2.3 log10 | Percent Reduction Compared to Corresponding Natural Die-off ([3]; exposure 6 hrs): 99.8% | Percent Reduction as Compared to Time Zero Virus Control ([3]; exposure 6 hrs): 99.995% | Percent Reduction Compared to Corresponding Natural Die-off ([3]; exposure 24 hrs): 99.8% | Percent Reduction as Compared to Time Zero Virus Control ([3]; exposure 24 hrs): ≧99.9999% | Average Virus Infectivity Observed After Exposure ([3]; exposure 24 hrs, virus detected in only one replicate): ≦0.6 log10 | Average CFU/Test carrier (Survivors in the test) ([4]; 2 hours): <1 (no survivors) CFU/Test carrier | Percent Reduction Compared to Corresponding Natural Die-off ([4]; 2 hours): >99.9999% | Percent Reduction as Compared to Time Zero Control ([4]; 2 hours): >99.9999% | Average CFU/Test carrier (Survivors in the test) ([4]; 6 hours): <1 (no survivors) CFU/Test carrier | Percent Reduction Compared to Corresponding Natural Die-off ([4]; 6 hours): >99.9999% | Percent Reduction as Compared to Time Zero Control ([4]; 6 hours): >99.9999% | Average CFU/Test carrier (Survivors in the test) ([4]; 24 hours): <1 (no survivors) CFU/Test carrier | Percent Reduction Compared to Corresponding Natural Die-off ([4]; 24 hours): >99.9999% | Percent Reduction as Compared to Time Zero Control ([4]; 24 hours): >99.9999% | efficacy in words [4, 7]: proven effective | Average CFU/Test carrier (Survivors in the test) ([5]; 2 hours): <1 (no survivors) CFU/Test carrier | Percent Reduction Compared to Corresponding Natural Die-off ([5]; 2 hours): >99.999% | Percent Reduction as Compared to Time Zero Control ([5]; 2 hours): >99.9999% | Average CFU/Test carrier (Survivors in the test) ([5]; 6 hours): <1 (no survivors) CFU/Test carrier | Percent Reduction Compared to Corresponding Natural Die-off ([5]; 6 hours): >99.99% | Percent Reduction as Compared to Time Zero Control ([5]; 6 hours): >99.9999% | Average CFU/Test carrier (Survivors in the test) ([5]; 24 hours): <1 (no survivors) CFU/Test carrier | Percent Reduction Compared to Corresponding Natural Die-off ([5]; 24 hours): >99.9% | Percent Reduction as Compared to Time Zero Control ([5]; 24 hours): >99.9999% | efficacy in words [5, 7]: proven effective | efficacy in words [6, 7]: proven effective | reduction of the bacteria on inoculated chips ([6]; several tests, all cases, within a matter of hours): significant reduction
